Reference: patent publication US20100317671A1, “XANTHINE-BASED CYCLIC GMP-ENHANCING RHO-KINASE INHIBITOR INHIBITS PHYSIOLOGICAL ACTIVITIES OF LUNG EPITHELIAL CELL LINE” (KAOHSIUNG MEDICAL UNIVERSITY, priority 2008, published 2010)

Columns and labels:
Type in all cases: in vivo
collagen = test: Collagen amount, bleomycin-induced IPF mice; details: for Fibrosis formation in lung tissue (collagen): day 28, p<0.01; for The amount of collagen: day 28 after BLM
Procedure: The amount of the collagen in the lung lavage is measured to reflect the fibrosis formation. […] (2) After the lung lavage is obtained, the chest of mice is opened and the lung lobes are cut one by one. […] The 1.5 ml eppendorffs are taken to arrange the calibration curve as follows. […] The eppendorff is then centrifuged at 12,000 rpm for 10 mins. The supernatant in the eppendorff is poured out slowly, 1 ml basic compound is added for dissolving the precipitation. After being violently shaken for 5 mins, the reaction is incubated for 3 hrs to stabilize the color. […] The amount of collagen is estimated through the 540 nm absorption measured by the ELISA reader.

MMP-2 [1] = test: Gelatin zymography of lung lavage, bleomycin mice; details: for MMP-2 expression in lung lavage (zymography): day 7 or day 28, p<0.05; for Expression of MMP2 in lung lavage: lung inflammatory stage
Procedure: (§1) The activities of MMP-2 (FIGS. 7A and 8A) and MMP-9 (FIGS. 7B and 8B) in the lung lavage of mice on day 7 (FIG. 7) and day 28 (FIG. 8) are analyzed by zymography. The expression levels are minor in the normal control group. […] The expressions of MMP-2 and MMP-9 on day 7 are higher than that on day 28. […] It is seen that KMUPs have the effect of mitigating the inflammation.
(§2) The MMPs in the lung lavaga are measured by zymography. It is known that all of the MMP-1, MMP-2, MMP-3, MMP-7 and MMP-9 can degrade the gelatin, especially the MMP-2 and MMP-9. The activity of collagenase can be analyzed by SDS-PAGE gel adding by gelatin. After the collected bronchoalveolar lavage fluid (BALF) is electrophoreted, the SDS is removed with 2.5% (v/v) Triton X-100 and the activity of collagenase is recovered to degrade the gelatin. After reacting for a period of time, the commassie blue is utilized for staining and destaining so that a transparent band in the area having the collagenase activity can be seen owing to the gelatin is degraded.
(§3) The BALF is collected and the concentration thereof is measured by Bio-Rad DC protein assay. The absorption of BALF at 595 nm wavelength is measured by an ELISA reader with a BSA standard, and the concentration of the sample is measured according to the standard curve of this absorption value.
(§4) The sample is mixed with non sample buffer. After reacting under temperature for 10 mins, the separating gel containing 0.1% gelatin is utilized for electrophoresis analysis under low temperature. While the electrophoresis is finished, the gel is immersed in 2.5% Triton X-100 buffer to react under temperature for half hour. The 2.5% Triton X-100 buffer is exchanged to react under temperature for additional half hour. The gel is immersed in the developing buffer at 37° C. for 24 hrs, stained with staining buffer for 1 hr and destained with the destaining buffer, and the transparent band can be seen.

MMP-9 [2] = test: Gelatin zymography of lung lavage, bleomycin mice; details: for MMP-9 expression in lung lavage (zymography): day 7 or day 28, p<0.05; for Expression of MMP-9 in lung lavage: lung inflammatory stage
Procedure: as §1, §2, §3, §4

MMP-2 [3] = test: Western blotting of lung tissue, bleomycin mice; details: increased by bleomycin; p<0.01
Procedure: (§5) The lung tissue is analyzed by western blotting, and the MMP-2 and MMP-9 protein expressions are shown in both of the FIGS. 9 and 10. In the lung tissue, the MMP-2 expression is more significant than MMP-9. KMUP-1 and KMUP-5 may mitigate the expressions of MMP-2 and MMP-9 increased by administrating the bleomycin (p<0.01).
(§6) (1) The mice lung is immersed in the tissue lysis buffer and homogenized by an ultrasound sonicator on ice.
(§7) (2) The lysate is centrifuged at 13,000 g under 4° C. for 30 mins. The supernatant is collected and the protein concentration measurement adopts the“Bio-Rad DC protein assay”. After diluting the protein as specific concentrations, the sample buffer being one fourth of the sample volume is added thereinto for heating at 100° C. for 5 mins, and the sample is loaded into each wells of SDS-PAGE gel in turn. The running buffer is added into the electrophoresis tank for electrophoresis at 100 V, the voltage is adjusted as 200 V when the protein runs to the lower gel, and the electrophoresis is stopped when the SDS-PAGE dye enters the SDS-PAGE.
(§8) (3) The PVDF membrane is rinsed ith transfer buffer for use, and the protein on the SDS-PAGE is transferred to the PVDF membrane. The SDS-PAGE layer covering on the PVDF membrane is placed in a protein transfer tank immersed with the transfer buffer with the current set at 100V. After 80 mins, the transfer is completed and then the PVDF membrane is taken out.
(§9) (4) after cutting the band having an appropriate molecular weight on the PVDF membrane, an appropriate amount of the blocking buffer is added to for blocking under room temperature to remove the non-specific binding. Then, evenly covering the diluted primary antibody on the PVDF membrane to react under room temperature for 2 hrs, and the excessive antibodies are removed by T-TBS. Further, evenly covering the diluted secondary antibody to react under room temperature for 1 hr and finally washing the excessive antibodies with T-TBS. The enhanced chemiluminescence (ECL) agent is added for reacting for 1-90 secs. After exposing to a x-ray film, the reaction is completed.

MMP-9 [4] = test: Western blotting of lung tissue, bleomycin mice; details: increased by bleomycin; p<0.01
Procedure: as §5, §6, §7, §8, §9

HMGB1 = HMGB1 expression, bleomycin mice; details: lung inflammatory stage
Procedure: (§10) At day 28, it is observed that expression of eNOS is decreased, the expressions of TGF-β, Smad 3 and HMGB1 are increased and there is significant collagen accumulation in the tissue sections.
as §6, §7
as §8, with “out. […]” for “out.”

TGF-β = TGF-β expression by western blotting, bleomycin mice; details: lung fibrotic stage
Procedure: as §10
(§11) The TGF-β (FIG. 12), CTGF (FIG. 13) and Smad3/p-Smad3 (FIG. 14) protein expressions in the lung tissue are analyzed by western blotting.
as §6, §7
(§12) (3) The PVDF membrane is rinsed ith transfer buffer for use, and the protein on the SDS-PAGE is transferred to the PVDF membrane. The SDS-PAGE layer covering on the PVDF membrane is placed in a protein transfer tank immersed with the transfer buffer with the current set at 100V. […]

Smad 3 = test: Smad3 expression by western blotting, bleomycin mice; details: lung fibrotic stage
Procedure: as §10, §11, §6, §7, §12

eNOS = eNOS expression by western blotting, bleomycin mice; details: lung fibrotic stage
Procedure: as §10
The eNOS (FIG. 15), p-eNOS (FIG. 16) and iNOS (FIG. 17) protein expressions in the lung tissue are analyzed by western blotting. […] The KMUPs administration effectively increases the eNOS expression.
as §6, §7
(3) The PVDF membrane is rinsed ith transfer buffer for use, and the protein on the SDS-PAGE is transferred to the PVDF membrane. […]

[5] = dose 2.5 mg/kg (Combination: 2.5 mg/kg each drug)

Row | Structure (SMILES) | Fibrosis formation in lung tissue (collagen) (collagen) | The amount of collagen (collagen; dose 1 mg/kg) [μg/lung] | The amount of collagen (collagen; [5]) [μg/lung] | The amount of collagen (collagen; dose 5 mg/kg) [μg/lung] | MMP-2 expression in lung lavage (zymography) (MMP-2 [1]) | Expression of MMP2 in lung lavage (MMP-2 [1]) | MMP-9 expression in lung lavage (zymography) (MMP-9 [2]) | Expression of MMP-9 in lung lavage (MMP-9 [2]) | MMP-2 protein expression in lung tissue (western blotting) (MMP-2 [3]) | MMP-9 protein expression in lung tissue (western blotting) (MMP-9 [4]) | Expression of HMGB1 (HMGB1) | Expression of TGF-β (TGF-β) | Expression of Smad 3 (Smad 3) | Expression of eNOS (eNOS)
1 | Cn1c(=O)c2c(ncn2CCN2CCN(c3ccccc3Cl)CC2)n(C)c1=O [KMUP-1, 7-[2-[4-(2-chlorobenzene)piperazinyl]ethyl]-1,3-dimethylxanthine] | reduce | 165.16 ± 0.11 | 132.25 ± 5.95 | 108.32 ± 6.05 | significantly decrease | efficiently decrease | significantly decrease | efficiently decrease | mitigate | mitigate | efficiently decrease | inhibit | inhibit | increase
2 | CCC(C)(C)C(=O)O[C@H]1C[C@@H](C)C=C2C=C[C@H](C)[C@H](CC[C@@H](O)C[C@@H](O)CC(=O)O)[C@H]21.Cn1c(=O)c2c(ncn2CCN2CCN(c3ccccc3Cl)CC2)n(C)c1=O [KMUP-5] | reduce |  | 79.40 ± 0.02 |  | significantly decrease | efficiently decrease | significantly decrease | efficiently decrease | mitigate | mitigate | efficiently decrease | inhibit | inhibit | increase
